These results are taken from patent publication US7186722B2, “2-heteroaryl-3,4-dihydro-2h-pyrrole derivatives and the use thereof as pesticides” (Bayer Cropscience AG, priority 2001, dated 2007).

A short description of series [1]: logP determination by HPLC (reversed-phase C 18), EEC Directive 79/831 Annex V.A8. The series is classed as physicochemical. As to the method: The stated logP values were determined in accordance with EEC Directive 79/831 Annex V.A8 by HPLC (High Performance Liquid Chromatography), using a reversed-phase column (C 18). Temperature: 43° C.
In the acidic range, the determination was carried out at pH 2.3 using the mobile phases 0.1% aqueous phosphoric acid and acetonitrile; linear gradient from 10% acetonitrile to 90% acetonitrile.
In the neutral range, the determination was carried out at pH 7.5 using the mobile phases 0.01 molar aqueous phosphate buffer solution and acetonitrile; linear gradient from 10% acetonitrile to 90% acetonitrile.
Calibration was carried out using unbranched alkan-2-ones (having 3 to 16 carbon atoms) with known logP values (determination of the logP values by the retention times using linear interpolation between two successive alkanones).

Series [2] has as its system caterpillars of the army worm (Spodoptera frugiperda). Description: Spodoptera frugiperda Test. To be noted: cabbage leaves dipped. The series is classed as in vivo. As to the method: Spodoptera frugiperda Test
• Solvent: 30 parts by weight of dimethylformamide. • Emulsifier: 1 part by weight of alkylaryl polyglycol ether
To produce a suitable preparation of active compound, 1 part by weight of active compound is mixed with the stated amount of solvent and emulsifier, and the concentrate is diluted with emulsifier-containing water to the desired concentration.
Cabbage leaves (Brassica oleracea) are treated by being dipped into the preparation of active compound of the desired concentration and are populated with caterpillars of the army worm (Spodoptera frugiperda) while the leaves are still moist.
After the desired period of time, the kill in % is determined. 100% means that all caterpillars have been killed; 0% means that none of the caterpillars have been killed.

In series [3] the test system is larvae of the mustard beetle (Phaedon cochleariae). Nature of the series: Phaedon Larvae Test. The following applies: 1000 ppm, cabbage leaves dipped. The series is classed as in vivo. As to the method:
Phaedon Larvae Test • Solvent: 30 parts by weight of dimethylformamide • Emulsifier: 1 part by weight of alkylaryl polyglycol ether To produce a suitable preparation of active compound, 1 part by weight of active compound is mixed with the stated amount of solvent and emulsifier, and the concentrate is diluted with emulsifier-containing water to the desired concentration. Cabbage leaves (Brassica oleracea) are treated by being dipped into the preparation of active compound of the desired concentration and are populated with larvae of the mustard beetle (Phaedon cochleariae) while the leaves are still moist.

[4] abbreviates: reversed-phase C18 HPLC column, pH 2.3, HPLC, 0.1% aqueous phosphoric acid/acetonitrile, 43° C., read-out: log P (pH 2.3).
Setting [5] is: pH 2.3, HPLC, 0.1% aqueous phosphoric acid/acetonitrile, 43° C., read-out: log P (pH 2.3).

Where two headings read alike, the source gives them in different places.

Turning to `Fc1cccc(F)c1C1=NC(c2ccc(-c3cccc(OC(F)(F)F)c3)s2)CC1` (centres unmarked) [Example 12, 5-(2,6-difluorophenyl)-2-{5-[3-(trifluoromethoxy)phenyl]-2-thienyl}-3,4-dihydro-2H-pyrrole], the chromatographic logP in series [1] (setting [4]) is 4.84.
`Fc1cccc(F)c1C1=NC(c2cc(-c3cccc(OC(F)(F)F)c3)cs2)CC1` (centres unmarked) [drawing 94]: the “Kill rate in % after 7 d” value in series [2] (1000 ppm) is 100%.
As to `Fc1cccc(F)c1C1=NC(c2ccc(Cl)nc2)CC1` (centres unmarked) [drawing 96], the “Kill rate in % after 7 d” value in series [2] (500 ppm) is 100%.
With `Fc1cccc(F)c1C1=NC(c2ccc(-c3ccc(OC(F)(F)F)cc3)s2)CC1` (centres unmarked) [Example 11, 5-(2,6-difluorophenyl)-2-{5-[4-(trifluoromethoxy)phenyl]-2-thienyl}-3,4-dihydro-2H-pyrrole], in series [1] (setting [4]), the chromatographic logP came out at 5.16.
In the case of `Fc1cccc(F)c1C1=NC(c2ccc(-c3cccc(OC(F)(F)F)c3)s2)CC1` (centres unmarked) [drawing 92], in series [2] (1000 ppm), the “Kill rate in % after 7 d” value is on record as 100%.
On to `Fc1cccc(F)c1C1=NC(c2cc3ccccc3s2)CC1` (centres unmarked) [Example 5], for which the chromatographic logP in series [1] (setting [4]) was found to be 3.11.
In the case of `O=C(CCC(Cl)c1ccc(Cl)nc1)c1c(F)cccc1F` (centres unmarked) [XV-2, 4-(6-chloro-3-pyridinyl)-4-chloro-1-(2,6-difluorophenyl)-1-butanone], in series [1] (setting [4]), the chromatographic logP came out at 3.37.
With `Fc1cccc(F)c1C1=NC(c2ccc(-c3ccc(OC(F)(F)F)cc3)nc2)CC1` (centres unmarked) [Example 10, 5-[5-(2,6-difluorophenyl)-3,4-dihydro-2H-pyrrol-2-yl]-2-[4-(trifluoromethoxy)phenyl]pyridine], the chromatographic logP in series [1] (setting [4]) stood at 3.5.
Consider `Cc1ccsc1C1CCC(=O)N1` (centres unmarked) [XI-4], for which the chromatographic logP in series [1] (setting [4]) was 1.33.
On the same count and under the same terms, under `Fc1cccc(F)c1C1=NC(c2cccs2)CC1` (centres unmarked) [Example 2] stands 1.95.
In the case of `Fc1cccc(F)c1C1=NC(c2sccc2Cl)CC1` (centres unmarked) [Example 3], the chromatographic logP in series [1] (setting [4]) is 3.34.
`O=C1CCC(c2ccc(Br)s2)N1` (centres unmarked) [XI-1, 5-(5-bromo-2-thienyl)-2-pyrrolidinone]: the chromatographic logP in series [1] (setting [4]) is 1.62.
The same measure, in the same setting: under `Fc1cccc(F)c1C1=NC(c2cc(-c3ccc(OC(F)(F)F)cc3)cs2)CC1` (centres unmarked) [Example 14, 5-(2,6-difluorophenyl)-2-{4-[4-(trifluoromethoxy)phenyl]-2-thienyl}-3,4-dihydro-2H-pyrrole] stands 4.66.
Same read-out and setting: under `[N-]=[N+]=NC(CCC(=O)c1c(F)cccc1F)c1cc(Br)cs1` (centres unmarked) [III-1, 4-azido-4-(4-bromo-2-thienyl)-1-(2,6-difluorophenyl)-1-butanone] stands 3.
Consider `Fc1cccc(F)c1C1=NC(c2cc3sc(-c4ccc(OC(F)(F)F)cc4)cc3s2)CC1` (centres unmarked) [drawing 91], for which, in series [2] (500 ppm), the “Kill rate in % after 7 d” value is given as 100%.
With `Fc1cccc(F)c1C1=NC(c2ccc(Br)s2)CC1` (centres unmarked) [Example 1, 2-(5-bromo-2-thienyl)-5-(2,6-difluorophenyl)-3,4-dihydro-2H-pyrrole], the chromatographic logP in series [1] (setting [4]) was found to be 3.45.
As to `Fc1cccc(F)c1C1=NC(c2cc(-c3ccc(OC(F)(F)F)cc3)cs2)CC1` (centres unmarked) [drawing 95], in series [2] (1000 ppm), the “Kill rate in % after 7 d” value came out at 100%.
For `CC(C)(C)OC(=O)N1C(=O)CCC1c1cc2ccccc2s1` (centres unmarked) [IX-5], in series [1] (setting [4]), the chromatographic logP was 3.03.
As to `O=C(CCC(Cl)c1ccc(-c2ccc(OC(F)(F)F)cc2)nc1)c1c(F)cccc1F` (centres unmarked) [XV-3, 4-chloro-1-(2,6-difluorophenyl)4-{6-[4-(trifluoromethoxy)phenyl]-3-pyridinyl}-1-butanone], the chromatographic logP in series [1] (setting [4]) came to 4.88.
In the case of `O=C(c1c(F)cccc1F)C1CC1c1ccc(Cl)nc1` (centres unmarked) [XVII-2, [2-(6-chloro-3-pyridinyl)cyclopropyl](2,6-difluorophenyl)methanone], in series [1] (setting [4]), the chromatographic logP was determined as 2.92.
`Cc1ccsc1C(CCC(=O)c1c(F)cccc1F)NC(=O)OC(C)(C)C` (centres unmarked) [II-4]: in series [1] (setting [4]), the chromatographic logP came to 4.27.
Take `CC(C)(C)OC(=O)NC(CCC(=O)c1c(F)cccc1F)c1cccs1` (centres unmarked) [II-2]: the chromatographic logP in series [1] (setting [5]) amounted to 4.48.
In the case of `CC(C)(C)OC(=O)N1C(=O)CCC1c1ccc(Br)s1` (centres unmarked) [IX-1, tert-butyl 2-(5-bromo-2-thienyl)-5-oxo-1-pyrrolidinecarboxylate], the chromatographic logP in series [1] (setting [4]) was 3.03.
With `Fc1cccc(F)c1C1=NC(c2cc(Br)cs2)CC1` (centres unmarked) [Example 8, 2-(4-bromo-2-thienyl)-5-(2,6-difluorophenyl)-3,4-dihydro-2H-pyrrole], in series [1] (setting [4]), the chromatographic logP is 3.41.
The same measure, in the same setting: with `Cc1ccsc1C1CCC(=O)N1C(=O)OC(C)(C)C` (centres unmarked) [IX-4] the figure was 2.65; with `Cc1ccsc1C1CCC(c2c(F)cccc2F)=N1` (centres unmarked) [Example 4], 2.34; with `O=C(c1c(F)cccc1F)C1CC1c1ccc(-c2ccc(OC(F)(F)F)cc2)nc1` (centres unmarked) [XVII-3, (2,6-difluorophenyl)(2-{6-[4-(trifluoromethoxy)phenyl]-3-pyridinyl}cyclopropyl)methanone], 4.4.
Compound `Fc1cccc(F)c1C1=NC(c2ccc(Cl)nc2)CC1` (centres unmarked) [Example 9, 2-(6-chloro-3-pyridinyl)-5-(2,6-difluorophenyl)-3,4-dihydro-2H-pyrrole] showed a chromatographic logP in series [1] (pH 2.3) of 1.93.
Regarding `CC(C)(C)OC(=O)NC(CCC(=O)c1c(F)cccc1F)c1cc2ccccc2s1` (centres unmarked) [II-5], in series [1] (setting [4]), the chromatographic logP was 4.2.
In the case of `CC(C)(C)OC(=O)NC(CCC(=O)c1c(F)cccc1F)c1ccc(Br)s1` (centres unmarked) [II-1, tert-butyl 1-(5-bromo-2-thienyl)-4-(2,6-difluorophenyl)-4-oxobutylcarbamate], the chromatographic logP in series [1] (setting [4]) came to 4.29.
As for `Fc1cccc(F)c1C1=NC(c2cc(-c3ccc(OC(F)(F)F)cc3)cs2)CC1` (centres unmarked) [drawing 89], the “Kill rate in % after 7 d” value in series [3] was found to be 100%.
Consider `Fc1cccc(F)c1C1=NC(c2ccc(-c3cccc(OC(F)(F)F)c3)s2)CC1` (centres unmarked) [drawing 88], for which, in series [3], the “Kill rate in % after 7 d” value turned out to be 100%.
Regarding `Fc1cccc(F)c1C1=NC(c2cc(Br)cs2)CC1` (centres unmarked) [drawing 93], in series [2] (1000 ppm), the “Kill rate in % after 7 d” value is recorded as 100%.
Turning to `CC(C)(C)OC(=O)NC(CCC(=O)c1c(F)cccc1F)c1sccc1Cl` (centres unmarked) [II-3], in series [1] (setting [5]), the chromatographic logP was found to be 4.28.
For the compound `O=C(/C=C/c1cc(Br)cs1)c1c(F)cccc1F` [XVIII-1, 3-(4-bromo-2-thienyl)-1-(2,6-difluorophenyl)-2-propen-1-one], in series [1] (setting [4]), the chromatographic logP worked out at 3.78.
`[N-]=[N+]=NC(CCC(=O)c1c(F)cccc1F)c1ccc(-c2ccc(OC(F)(F)F)cc2)nc1` (centres unmarked) [III-3, 4-azido-1-(2,6-difluorophenyl)-4-{6-[4-(trifluoromethoxy)phenyl]-3-pyridinyl}-1-butanone]: the chromatographic logP in series [1] (setting [4]) was 4.78.
Consider `Cc1ccsc1C1CCC(c2c(F)cccc2F)=N1` (centres unmarked) [drawing 87], for which, in series [3], the “Kill rate in % after 7 d” value is 100%.
For the compound `O=C(CCC(Cl)c1cc(Br)cs1)c1c(F)cccc1F` (centres unmarked) [XV-1, 4-(4-bromo-2-thienyl)4-chloro-1-(2,6-difluorophenyl)-1-butanone], the chromatographic logP in series [1] (setting [4]) was 3.
For the compound `Fc1cccc(F)c1C1=NC(c2cc(-c3cccc(OC(F)(F)F)c3)cs2)CC1` (centres unmarked) [Example 13, 5-(2.6-difluorophenyl)-2-{4-[3-(trifluoromethoxy)phenyl]-2-thienyl}-3,4-dihydro-2H-pyrrole], the chromatographic logP in series [1] (setting [4]) was 4.08.
Regarding `O=C1CCC(c2cccs2)N1` (centres unmarked) [XI-2], the chromatographic logP in series [1] (setting [4]) was 1.03.
As to `O=C(c1c(F)cccc1F)C1CC1c1cc(Br)cs1` (centres unmarked) [XVII-1, [2-(4-bromo-2-thienyl)cyclopropyl](2,6-difluorophenyl)methanone], the chromatographic logP in series [1] (setting [4]) was 4.14.
With `[N-]=[N+]=NC(CCC(=O)c1c(F)cccc1F)c1ccc(Cl)nc1` (centres unmarked) [III-2, 4-azido-4-(6-chloro-3-pyridinyl)-1-(2,6-difluorophenyl)-1-butanone], the chromatographic logP in series [1] (setting [4]) was determined as 3.33.
On to `CC(C)(C)OC(=O)N1C(=O)CCC1c1cccs1` (centres unmarked) [IX-2], for which the chromatographic logP in series [1] (setting [4]) turned out to be 2.39.
As for `O=C1CCC(c2cc3ccccc3s2)N1` (centres unmarked) [XI-5], the chromatographic logP in series [1] (setting [4]) was 1.73.
In the case of `O=C(/C=C/c1ccc(Cl)nc1)c1c(F)cccc1F` [XVIII-2, 3-(6-chloro-3-pyridinyl)-1-(2,6-difluorophenyl)-2-propen-1-one], in series [1] (setting [4]), the chromatographic logP amounted to 2.87.
On to `CC(C)(C)OC(=O)N1C(=O)CCC1c1sccc1Cl` (centres unmarked) [IX-3], for which the chromatographic logP in series [1] (reversed-phase C18 HPLC column, pH 7.5, HPLC, 0.01 molar aqueous phosphate buffer/acetonitrile, 43° C., read-out: log P (pH 7.5)) was 2.77.
With `O=C1CCC(c2sccc2Cl)N1` (centres unmarked) [XI-3], the chromatographic logP in series [1] (setting [4]) is 1.41.
